{"source": "paper PMC9787607", "about": "“A Novel Protocol for the Synthesis of 1,2,4-Oxadiazoles Active against Trypanosomatids and Drug-Resistant Leukemia Cell Lines” (Tropical Medicine and Infectious Disease, 2022)", "key": {"FEPS (K562/DNR)": {"test_system": "FEPS (K562/DNR)", "assay": "MTT cytotoxicity to MDR CML cell line FEPS", "format": "cell-based, human", "settings": "for RR (relative resistance) FEPS: (EC50 MDR cells)/(EC50 parental cells), FEPS/K562; for EC50: Homo sapiens, K562, 72 h, MTT", "method_in_brief": "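K562 and its MDR sublines Lucena-1 (maintained in 60 nM VCR) and FEPS (500 nM DNR) seeded at 2 × 10^4 cells/mL in RPMI-1640 with 10% FBS, treated with compounds at 1–100 μM (0.5% DMSO controls). MTT 0.5 g/L for 3 h, A570 read; EC50 by logarithmic regression, three independent experiments.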"}, "[1]": {"test_system": "T. cruzi amastigotes (Tulahuen C2C4 LacZ strain)", "assay": "microbe, parasite or virus in culture", "format": "cell-based, Trypanosoma cruzi", "settings": "for viability at 50 µM: LLC-MK2, 120 h; for EC50: in LLC-MK2, 120 h, read-out: EC50 T. cruzi intracellular amastigotes; for S.I. (selectivity index): host cell/parasite EC50 ratio, LLC-MK2/T. cruzi", "experimental": "To a monolayer of 1.0 × 10^7 LLC-MK2 cells in a 150 cm^2 culture flask were added 5.0 × 10^7 trypomastigotes of T. cruzi expressing the […] (Tulahuen C2C4 LacZ) in complete DMEM with 2.5% FBS. The infection was allowed to occur for 24 h, the supernatant was removed, and the cell monolayer was washed with PBS. Complete DMEM with 2.5% FBS was renewed every 2 days up to the sixth day after infection. Trypomastigote forms were collected daily from the supernatant between days 7 and 12 after infection, enriched by differential centrifugation (1500× g for 10 min, 5580× g for 20 min), and resuspended in complete DMEM with 5% FBS. Parasite density was determined by counting the mobile trypomastigotes on Neubauer chambers before use.\n. The medium was renewed, and trypomastigote forms of T. cruzi (Tulahuen C2C4 LacZ strain, 2.0 × 10^5 parasites per well) were added. After incubation for 24 h at 37 °C in 5% CO2, the cell monolayer was washed with PBS to remove noninternalized parasites. DMEM without phenol red and 5% FBS was added, and infected cells were treated with compounds at a range of concentrations in triplicate (50 μM or 100–1 μM). Untreated infected cells and noninfected LLC-MK2 cells were used as negative and positive controls, respectively. Vehicle control containing DMEM without phenol red and 0.3% DMSO was maintained for comparison. After incubation for 120 h at 37 °C in 5% CO2, a solution containing […] and 0.8% IGEPAL CA-630 in PBS (30 µL per well), followed by further incubation for 2 h at 37 °C in 5% CO2. Absorbance was measured using a microplate reader at 570 nm.\n(§1) The percent cell or parasite viability was calculated by the formula: % viability = [(A − P)/(N − P)] × 100, A = absorbance of specific well, P = positive control, N = negative control. Determination of half-maximal effective concentrations (EC50), calculated by logarithmic regression, and significance analysis (p < 0.05), using ANOVA and Dunnett’s test, by GraphPad Prism 7.0 software. The results are expressed as the mean and standard deviation (SD) of three independent experiments."}, "[2]": {"test_system": "L. amazonensis promastigotes", "assay": "Anti-L. amazonensis promastigote assessment (MTT)", "format": "cell-based", "settings": "Leishmania amazonensis; 48 h, MTT; read-out: EC50 L. amazonensis promastigotes", "experimental": "Promastigotes of L. amazonensis (MHOM/BR/75/Josefa) were cultured in Schneider’s insect medium (SIM) with 10% FBS. Parasites were harvested at the stationary growth phase for assessment against promastigotes and 24 h after cultures reached the stationary growth phase for infection assays. […]. Complete SIM media and amphotericin B (AmB) at 10 µM were used as negative and positive controls, respectively. A vehicle control containing SIM with 10% SFB media and 0.3% DMSO was maintained for comparison. The final volume of the experiment was 100 µL. After incubation for 48 h at 27 °C, MTT salt solution in PBS was added (3.0 mM, 20 µL per well). After incubation for 2 h at 27 °C, the MTT formazan was dissolved by adding 120 µL of solubilizing buffer (50% isopropanol, 40% acetate buffer pH 5.4, 10% Triton-X). Absorbance was measured using a microplate reader at 570 nm.\nas §1"}, "[3]": {"test_system": "L. amazonensis amastigotes", "assay": "Anti-L. amazonensis amastigote assessment in RAW 264.7 macrophages", "format": "cell-based, Leishmania amazonensis", "settings": "for EC50: Leishmania amazonensis, RAW264.7, in RAW 264.7, 48 h, read-out: EC50 L. amazonensis intracellular amastigotes; for S.I. (selectivity index): host cell/parasite EC50 ratio, RAW/L. amazonensis", "experimental": "RAW 264.7 cells were seeded in a 96-well microplate (2.0 × 10^4 cells per well) in complete DMEM with 5% FBS and incubated for 3 h at 37 °C in 5% CO2 for cell adhesion. The medium was renewed, and L. amazonensis promastigotes (3.0 × 10^5 parasites per well) were added. After 24 h of incubation at 37 °C in 5% CO2, the cell monolayer was washed with PBS to remove noninternalized parasites, the medium was renewed, and compounds were added at a range of concentrations in triplicate (100–1 μM). Untreated infected cells and noninfected RAW 264.7 cells were used as negative and positive controls, respectively. Vehicle control containing DMEM and 0.3% DMSO was maintained for comparison. After incubation for 48 h at 37 °C in 5% CO2, the medium was removed, and a solution containing 0.02% SDS in PBS (20 µL per well) was added. Macrophage lysis and amastigote release were accompanied under an inverted microscope for 10–15 min. SIM with 12.5% SFB (80 µL per well) was added, parasites were allowed to differentiate into promastigotes for 48 h at 27 °C, and an MTT salt solution in PBS was added (3.0 mM, 20 µL per well). After incubation for 2 h at 27 °C, the MTT formazan was dissolved by adding 120 µL of solubilizing buffer (50% isopropanol, 40% acetate buffer pH 5.4, 10% Triton X). Absorbance was measured using a microplate reader at 570 nm.\nas §1"}, "[4]": {"settings": "Trypanosoma cruzi, TULAHUEN, screening at 50 μM, 120 h, compared with untreated controls"}}}
{"smiles": "COc1cc(/C=C/c2nc(-c3ccccc3)no2)cc(OC)c1OC", "note": "[Compound 12, (E)-3-phenyl-5-[2-(3,4,5-trimethoxyphenyl)vinyl]-1,2,4-oxadiazole]", "values": [{"measurement": "RR (relative resistance) FEPS", "setting": "FEPS (K562/DNR)", "result": 1.42}, {"measurement": "EC50", "setting": "FEPS (K562/DNR)", "result": "25.5 ± 4.9", "unit": "µM"}, {"measurement": "viability at 50 µM", "setting": "[1]; [4]", "result": "37.8 ± 2.6", "unit": "%"}, {"measurement": "EC50", "setting": "[1]; Trypanosoma cruzi, TULAHUEN", "result": "22.5 ± 3.7", "unit": "µM"}, {"measurement": "S.I. (selectivity index)", "setting": "[1]", "result": ">4.5"}, {"measurement": "EC50", "setting": "[2]", "result": "26 ± 3", "unit": "µM"}, {"measurement": "EC50", "setting": "[3]", "result": "50.1 ± 16.4", "unit": "µM"}, {"measurement": "S.I. (selectivity index)", "setting": "[3]", "result": ">2.0"}]}
{"smiles": "C(=C\\c1nc(-c2ccccc2)no1)/c1cccnc1", "note": "[Compound 15, (E)-3-phenyl-5-[2-pyridyn-3-yl-vinyl]-1,2,4-oxadiazole]", "values": [{"measurement": "RR (relative resistance) FEPS", "setting": "FEPS (K562/DNR)", "result": 0.68}, {"measurement": "EC50", "setting": "FEPS (K562/DNR)", "result": "18.7 ± 3.9", "unit": "µM"}, {"measurement": "viability at 50 µM", "setting": "[1]; [4]", "result": 33.8, "unit": "%"}, {"measurement": "EC50", "setting": "[1]; Trypanosoma cruzi, TULAHUEN", "result": "33.8 ± 2.3", "unit": "µM"}, {"measurement": "S.I. (selectivity index)", "setting": "[1]", "result": ">3.0"}, {"measurement": "% Viability T. cruzi amastigotes", "setting": "[1]; screening at 50 μM, 120 h, compared with untreated controls, 50 µM", "result": "21.5 ± 2.2", "unit": "%"}, {"measurement": "EC50", "setting": "[2]", "result": "53.6 ± 2.2", "unit": "µM"}, {"measurement": "melting point", "result": "107 to 110", "unit": "°C"}]}
{"smiles": "COc1cc(/C=C/c2nc(-c3cc(OC)c(OC)c(OC)c3)no2)cc(OC)c1OC", "note": "[Compound 23, (E)-3-(3,4,5-trimethoxyphenyl)-5-[2-(3,4,5-trimethoxyphenyl)-vinyl]-1,2,4-oxadiazole]", "values": [{"measurement": "RR (relative resistance) FEPS", "setting": "FEPS (K562/DNR)", "result": 0.42}, {"measurement": "EC50", "setting": "FEPS (K562/DNR)", "result": "5.5 ± 0.6", "unit": "µM"}, {"measurement": "lowest concentration with significant amastigote growth inhibition compared with host cell toxicity", "setting": "[1]; T. cruzi vs LLC-MK2, p < 0.05", "result": 1.0, "unit": "µM"}, {"measurement": "viability at 50 µM", "setting": "[1]; [4]", "result": "8.6 ± 1.2", "unit": "%"}, {"measurement": "viability at 1 µM", "setting": "[1]; Trypanosoma cruzi, TULAHUEN, LLC-MK2, T. cruzi amastigotes at 1.0 μM, read-out: amastigote viability", "result": "81.3 ± 6.2", "unit": "%"}, {"measurement": "EC50", "setting": "[1]; Trypanosoma cruzi, TULAHUEN", "result": "2.9 ± 0.2", "unit": "µM"}, {"measurement": "S.I. (selectivity index)", "setting": "[1]", "result": 26.7}, {"measurement": "EC50", "setting": "[2]", "result": "12.2 ± 0.7", "unit": "µM"}, {"measurement": "lowest concentration with significant amastigote growth inhibition compared with host cell toxicity", "setting": "[3]; L. amazonensis vs RAW 264.7, p < 0.05", "result": 16, "unit": "µM"}, {"measurement": "EC50", "setting": "[3]", "result": "13.5 ± 3.6", "unit": "µM"}, {"measurement": "S.I. (selectivity index)", "setting": "[3]", "result": ">7.4"}, {"measurement": "melting point", "result": "118 to 120", "unit": "°C"}]}
{"smiles": "COc1cc(-c2noc(/C=C/c3ccc4c(c3)OCO4)n2)cc(OC)c1OC", "note": "[Compound 24, (E)-3-(3,4,5-trimethoxyphenyl)-5-[2-(3,4-methylenedioxy-phenyl)vinyl]-1,2,4-oxadiazole]", "values": [{"measurement": "RR (relative resistance) FEPS", "setting": "FEPS (K562/DNR)", "result": 0.15}, {"measurement": "EC50", "setting": "FEPS (K562/DNR)", "result": "8.9 ± 0.3", "unit": "µM"}, {"measurement": "viability at 50 µM", "setting": "[1]; [4]", "result": "42.2 ± 2.7", "unit": "%"}, {"measurement": "EC50", "setting": "[1]; Trypanosoma cruzi, TULAHUEN", "result": "28.7 ± 3.1", "unit": "µM"}, {"measurement": "S.I. (selectivity index)", "setting": "[1]", "result": 1.9}, {"measurement": "EC50", "setting": "[2]", "result": "10 ± 2.7", "unit": "µM"}, {"measurement": "EC50", "setting": "[3]", "result": "24.8 ± 10.4", "unit": "µM"}, {"measurement": "S.I. (selectivity index)", "setting": "[3]", "result": 2.3}, {"measurement": "melting point", "result": "177 to 180", "unit": "°C"}]}
